Test: Salivary acetaldehyde in smokers sucking blinded L-cysteine tablets during cigarette smoking, gas chromatography
Format: in vivo, human
Settings: for mean salivary acetaldehyde concentration immediately after smoking: five smokers, placebo 191.2±48.5 μM
Method: Five smokers (age 29±2.8) participated in the study, in which […] were smoked (wash-out periods between). During every cigarette smoking (in 5 min time) volunteers sucked blinded tablets containing placebo, 1.25 mg, 2.5 mg, 5 mg, 10 mg or 20 mg L-cysteine. Acetaldehyde was analysed from salivary samples gas chromatographically at 0, 5, 10, 20 min from the beginning of smoking.
The mean salivary acetaldehyde concentrations immediately after smoking were 191.2±48.5 μM, 0 μM, 0 μM, 0 μM with placebo, 5 mg, 10 mg and 20 mg L-cysteine tablets, respectively.

## N[C@@H](CS)C(=O)O [L-cysteine]
1.25 mg L-cysteine tablet
  amount of acetaldehyde compared to placebo: about to third compared to placebo
5 mg L-cysteine tablet sucked during 5 min smoking
  mean salivary acetaldehyde concentration immediately after smoking: 0 µM
5 mg of L-cysteine administered by melting-tablet
  carcinogenic acetaldehyde in the saliva during smoking: totally inactivates
10 mg L-cysteine tablet sucked during 5 min smoking
  mean salivary acetaldehyde concentration immediately after smoking: 0 µM
20 mg L-cysteine tablet sucked during 5 min smoking
  mean salivary acetaldehyde concentration immediately after smoking: 0 µM
L-cysteine tablets 5 mg, 10 and 20 mg, FIG. 4
  tobacco-originated acetaldehyde from the saliva: totally eradicated

Source: patent publication US20080000489A1, “Method and preparation for binding aldehydes in saliva” (BIOHIT OYJ, priority 2000, published 2008)
